Experiment [1] deals with LNCaP-Vancouver prostate cells. Kind of experiment: In vitro LNCaP Vancouver prostate cell proliferation assay in lipid reduced medium. Type of experiment: cell-based. To be noted: read-out: pIC50 LNCaP_Vancouver prostate cell (converted).
For experiment [2], the system named is PC-3M-Luc-C6 prostate cells. Description: In vitro PC-3M-Luc-C6 prostate cell proliferation assay in lipid reduced medium. To be noted: 96 h, read-out: pIC50 PC-3M-Luc-C6 prostate cell (converted). Type of experiment: cell-based.
Experiment [3] addresses T1, hFASN enzyme (full length) (Homo sapiens, UniProt P49327).
T1 construct: 10 μL hFASN enzyme (full length, 300 ng, purified in house); made in house
Description: Fatty Acid Synthase (FASN) inhibition scintillation proximity assay. The settings on record: for inhibition at 10 µM: read-out: Human FASN % inhibition @ 10 μM, 10 μM test compound; for IC50: read-out: Human FASN pIC50 (converted). The format is biochemical. An outline of the steps: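 Compounds at 0.01–30 μM were mixed with 300 ng purified full-length enzyme in 100 mM KH2PO4 pH 7.5, 1 mM DTT. Substrates ³H-acetyl-CoA and malonyl-CoA were then converted, and bead addition stopped the reaction. Signal was normalised to low and high plate controls and fitted by 4-parameter nonlinear regression.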
On the technique in general: Scintillation proximity formats need no separation of bound from free tracer.

Experiment [4] has as its target Fatty Acid Synthase Keto-reductase Domain (FASN KR) (Homo sapiens, UniProt P49327). Kind of experiment: Fatty Acid Synthase keto-reductase domain (FASN KR) inhibition, NADPH oxidation at 340 nm.
Description: After 20 minutes incubation at room temperature the plate was measured again (T2).
The decrease in absorbance was calculated as (Absorbance before incubation T1)−(Absorbance following incubation T2).
A plot of Controlmin versus test compound concentration was fitted to a 4-parameter logistic curve using a non-linear least squares regression method.
Experiment [5] has as its system A2780 ovarian cells. Kind of experiment: A2780 ovarian cell proliferation assay in lipid reduced medium, without palmitate (MTT). Type of experiment: cell-based. To be noted: Homo sapiens, A2780, 96 h; read-out: pIC50 A2780 Ovarian Cell, Without Palmitate (converted).
Experiment [6] has as its system A2780 ovarian cells. Description: A2780 ovarian cell proliferation assay in lipid reduced medium, with palmitate (MTT). The settings on record: Homo sapiens, A2780, 96 h; read-out: pIC50 A2780 Ovarian Cell, With Palmitate (converted). The format is cell-based. Summed up:
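Seeded cells were switched next day to lipid-reduced serum, exposed to compound and 25 μM palmitate complexed with fatty-acid-free BSA, and incubated 96 h. Proliferation was then determined by MTT absorbance at 544 nm, with a best-fit curve of signal against concentration.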

T1 sequence (P49327 whole entry): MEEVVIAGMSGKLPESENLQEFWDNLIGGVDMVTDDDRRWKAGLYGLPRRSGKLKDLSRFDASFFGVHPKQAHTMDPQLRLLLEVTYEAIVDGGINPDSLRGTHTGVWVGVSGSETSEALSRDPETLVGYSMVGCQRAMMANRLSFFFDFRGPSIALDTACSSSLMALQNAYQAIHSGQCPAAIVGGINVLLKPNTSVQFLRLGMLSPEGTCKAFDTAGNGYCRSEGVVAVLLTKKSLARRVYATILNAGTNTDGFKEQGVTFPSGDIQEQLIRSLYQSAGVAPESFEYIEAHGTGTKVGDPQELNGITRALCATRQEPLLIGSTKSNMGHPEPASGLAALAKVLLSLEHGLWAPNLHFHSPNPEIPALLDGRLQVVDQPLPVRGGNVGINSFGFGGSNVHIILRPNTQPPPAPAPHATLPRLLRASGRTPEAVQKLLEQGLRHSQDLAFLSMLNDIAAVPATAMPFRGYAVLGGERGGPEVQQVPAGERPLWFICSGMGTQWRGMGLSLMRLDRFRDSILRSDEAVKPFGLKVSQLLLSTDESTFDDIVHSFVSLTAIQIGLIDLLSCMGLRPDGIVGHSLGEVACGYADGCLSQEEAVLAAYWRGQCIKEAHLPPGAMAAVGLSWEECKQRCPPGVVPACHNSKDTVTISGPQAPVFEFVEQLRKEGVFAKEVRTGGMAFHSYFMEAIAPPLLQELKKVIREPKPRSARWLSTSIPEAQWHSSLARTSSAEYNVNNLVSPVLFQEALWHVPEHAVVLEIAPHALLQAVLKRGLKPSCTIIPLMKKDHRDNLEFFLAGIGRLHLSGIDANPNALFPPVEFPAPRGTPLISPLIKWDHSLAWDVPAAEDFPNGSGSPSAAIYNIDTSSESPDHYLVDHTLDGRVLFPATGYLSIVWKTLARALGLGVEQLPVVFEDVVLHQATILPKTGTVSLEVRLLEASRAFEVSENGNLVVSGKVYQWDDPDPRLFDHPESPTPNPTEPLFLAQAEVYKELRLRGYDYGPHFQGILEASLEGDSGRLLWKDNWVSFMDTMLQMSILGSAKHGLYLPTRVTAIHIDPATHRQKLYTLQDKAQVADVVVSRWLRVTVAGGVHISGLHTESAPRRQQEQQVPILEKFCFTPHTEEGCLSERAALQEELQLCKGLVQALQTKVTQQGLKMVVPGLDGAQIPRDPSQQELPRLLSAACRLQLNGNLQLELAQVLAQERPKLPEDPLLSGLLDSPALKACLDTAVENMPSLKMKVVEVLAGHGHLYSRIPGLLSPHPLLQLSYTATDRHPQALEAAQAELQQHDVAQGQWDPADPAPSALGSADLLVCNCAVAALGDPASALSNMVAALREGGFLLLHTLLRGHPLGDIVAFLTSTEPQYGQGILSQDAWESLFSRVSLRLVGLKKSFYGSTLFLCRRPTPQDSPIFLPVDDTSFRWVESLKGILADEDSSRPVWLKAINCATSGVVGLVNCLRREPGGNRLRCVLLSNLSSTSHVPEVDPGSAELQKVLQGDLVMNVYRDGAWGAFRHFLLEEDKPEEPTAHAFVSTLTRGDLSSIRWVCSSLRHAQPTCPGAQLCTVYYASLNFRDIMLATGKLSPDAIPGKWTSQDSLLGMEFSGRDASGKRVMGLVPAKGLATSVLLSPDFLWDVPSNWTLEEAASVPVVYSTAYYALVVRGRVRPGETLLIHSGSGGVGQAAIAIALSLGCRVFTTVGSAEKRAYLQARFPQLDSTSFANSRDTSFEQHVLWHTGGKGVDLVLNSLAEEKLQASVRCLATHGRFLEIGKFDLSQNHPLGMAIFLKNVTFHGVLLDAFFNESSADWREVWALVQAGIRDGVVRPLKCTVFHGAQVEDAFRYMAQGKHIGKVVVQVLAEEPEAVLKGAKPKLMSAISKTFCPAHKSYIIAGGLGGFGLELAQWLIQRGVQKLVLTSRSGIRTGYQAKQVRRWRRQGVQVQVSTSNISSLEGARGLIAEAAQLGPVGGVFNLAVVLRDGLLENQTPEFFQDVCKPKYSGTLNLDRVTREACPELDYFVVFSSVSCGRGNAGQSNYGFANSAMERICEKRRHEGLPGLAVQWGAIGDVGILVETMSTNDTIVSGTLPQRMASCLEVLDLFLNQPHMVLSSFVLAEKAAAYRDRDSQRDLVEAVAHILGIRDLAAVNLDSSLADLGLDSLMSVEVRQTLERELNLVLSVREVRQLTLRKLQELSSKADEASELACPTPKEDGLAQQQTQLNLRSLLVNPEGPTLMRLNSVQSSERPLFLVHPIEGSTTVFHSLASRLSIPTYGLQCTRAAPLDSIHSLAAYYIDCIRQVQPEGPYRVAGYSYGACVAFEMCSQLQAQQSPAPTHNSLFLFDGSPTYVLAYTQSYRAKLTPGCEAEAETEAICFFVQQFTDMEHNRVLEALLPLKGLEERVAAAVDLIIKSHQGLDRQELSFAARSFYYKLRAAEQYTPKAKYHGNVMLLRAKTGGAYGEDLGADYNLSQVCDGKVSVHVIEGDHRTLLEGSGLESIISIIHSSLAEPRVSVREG
Chain of Fatty Acid Synthase Keto-reductase Domain (FASN KR) (P49327 whole entry, the tested form may be a part): as the sequence (P49327 whole entry) above

For orientation: inhibition means the percentage by which the read-out fell short of the control. As for `Cc1cc(C2=NC3(CC3)C(=O)N2C[C@@H]2CCN(C(=O)C3CC3)C2)ccc1-c1ccc2[nH]ncc2c1` [compound 444, 6-{[(3R)-1-(Cyclopropylcarbonyl)pyrrolidin-3-yl]methyl}-5-[4-(1H-indazol-5-yl)-3-methylphenyl]-4,6-diazaspiro[2.4]hept-4-en-7-one], the IC50 in experiment [1] was 1820 nM; in experiment [2] it was 417 nM; in experiment [3] it was 251 nM; in experiment [4], 562 nM; in the experiment on A2780 ovarian cells [5], roughly 209 nM; in the experiment on A2780 ovarian cells [6] it was greater than 10000 nM. For the same compound, the inhibition at 10 µM in experiment [3] was found to be 95%.

Take `Cc1cc(C2=NC3(CC3)C(=O)N2C[C@@H]2CCN(C(=O)C3CC3)C2)ccc1-c1cccc2[nH]ncc12` [compound 445, 6-{[(3R)-1-(Cyclopropylcarbonyl)pyrrolidin-3-yl]methyl}-5-[4-(1H-indazol-4-yl)-3-methylphenyl]-4,6-diazaspiro[2.4]hept-4-en-7-one]: the IC50 was 1170 nM in experiment [1]; 234 nM in experiment [2]; 182 nM in experiment [3]; 209 nM in experiment [4]; 67.6 nM in the experiment on A2780 ovarian cells [5]; greater than 10000 nM in the experiment with A2780 ovarian cells [6]. Also, the inhibition at 10 µM in experiment [3] is 100%.

Turning to `Nc1cc(-c2ccc(C3=NC4(CC4)C(=O)N3C[C@@H]3CCN(C(=O)C4CC4)C3)cc2)ccn1` [compound 452, 5-[4-(2-Aminppyridin-4-yl)phenyl]-6-{[(3R)-1-(cyclopropylcarbonyl)pyrrolidin-3-yl]methyl}-4,6-diazaspiro[2.4]hept-4-en-7-one], the IC50 is 2040 nM in experiment [1]; 550 nM in experiment [2]; 229 nM in experiment [3]; 525 nM in experiment [4]; 631 nM in the experiment on A2780 ovarian cells [5]; greater than 10000 nM in the experiment with A2780 ovarian cells [6]. Further, the inhibition at 10 µM in experiment [3] is 97%.

Turning to `O=C(C1CC1)N1CC[C@@H](CN2C(=O)C3(CC3)N=C2c2ccc(-c3ccc4c(c3)COCC4)cc2)C1` [compound 453, 6-{[(3R)-1-(Cyclopropylcarbonyl)pyrrolidin-3-yl]methyl}-5-[4-(3,4-dihydro-1H-2-benzopyran-7-yl)phenyl]-4,6-diazaspiro[2.4]hept-4-en-7-one], the IC50 in experiment [1] was 2950 nM; in experiment [2], 1620 nM; in experiment [3], 245 nM; in experiment [4], 1120 nM; in the experiment on A2780 ovarian cells [5], 2140 nM; with A2780 ovarian cells [6], greater than 10000 nM. Also, in experiment [3], the inhibition at 10 µM stood at 94%.

Turning to `O=C1Cc2cc(-c3ccc(C4=NC5(CC5)C(=O)N4C[C@@H]4CCN(C(=O)C5CC5)C4)cc3)ccc2N1` [compound 457, 5-[4-(6-{[(3R)-1-(Cyclopropylcarbonyl)pyrrolidin-3-yl]methyl}-7-oxo-4,6-diazaspiro[2.4]hept-4-en-5-yl)phenyl]-1,3-dihydro-2H-indol-2-one], the IC50 in experiment [1] was greater than 3020 nM; in experiment [2], 2190 nM; in experiment [3] it was 457 nM; in experiment [4] it was 1450 nM; with A2780 ovarian cells [5], 1260 nM; with A2780 ovarian cells [6], greater than 6170 nM. The inhibition at 10 µM in experiment [3] amounted to 91%.

Turning to `O=C1Cc2ccc(-c3ccc(C4=NC5(CC5)C(=O)N4C[C@@H]4CCN(C(=O)C5CC5)C4)cc3)cc2N1` [compound 461, 6-[4-(6-{[(3R)-1-(Cyclopropylcvarbonyl)pyrrolidin-3-yl]methyl}-7-oxo-4,6-diazaspiro[2.4]hept-4-en-5-yl)phenyl]-1,3-dihydro-2H-indol-2-one], the IC50 in experiment [1] is roughly 2510 nM; in experiment [2], roughly 603 nM; in experiment [3], 141 nM; in experiment [4], 1170 nM; in the experiment with A2780 ovarian cells [5], roughly 427 nM; in the experiment with A2780 ovarian cells [6], greater than 10000 nM. For the same compound, the inhibition at 10 µM in experiment [3] is 95%.

`O=C(C1CC1)N1CC[C@@H](CN2C(=O)C3(CC3)N=C2c2ccc(-c3ccc4c(c3)CCO4)cc2)C1` [compound 462, 6-{[(3R)-1-(Cyclopropylcarbonyl)pyrrolidin-3-yl]methyl}-5-[4-(2,3-dihydro-1-benzofuran-5-yl)phenyl]-4,6-diazaspiro[2.4]hept-4-en-7-one]: the IC50 in experiment [1] was 2340 nM; in experiment [2], 1170 nM; in experiment [3], 158 nM; in experiment [4] it was 912 nM; in the experiment with A2780 ovarian cells [5] it was 1860 nM; in the experiment with A2780 ovarian cells [6], greater than 10000 nM. For the same compound, the inhibition at 10 µM in experiment [3] is 98%.

For `N#Cc1cc2cc(-c3ccc(C4=NC5(CC5)C(=O)N4C[C@@H]4CCN(C(=O)C5CC5)C4)cc3F)ccc2o1` [compound 463, 5-[4-(6-{[(3R)-1-(Cyclopropylcarbonyl)pyrrolidin-3-yl]methyl}-7-oxo-4,6-diazaspiro[2.4]hept-4-en-5-yl)-2-fluorophenyl]-1-benzofuran-2-carbonitrile], the IC50 in experiment [1] was 7240 nM; in experiment [2] it was 1910 nM; in experiment [3], 224 nM; in experiment [4], 977 nM; in the experiment on A2780 ovarian cells [5] it was roughly 3800 nM; with A2780 ovarian cells [6] it was greater than 10000 nM. For the same compound, the inhibition at 10 µM in experiment [3] was found to be 93%.

`O=C(C1CC1)N1CC[C@@H](CN2C(=O)C3(CC3)N=C2c2ccc(-c3ccc4c(=O)[nH]ccc4c3)cc2)C1` [compound 467, 6-[4-(6-{[(3R)-1-(Cyclopropylcarbonyl)pyrrolidin-3-yl]methyl}-7-oxo-4,6-diazaspiro[2.4]hept-4-en-5-yl)phenyl]isoquinolin-1(2H)-one]: the IC50 in experiment [1] is 2880 nM; in experiment [2], 776 nM; in experiment [3] it was 331 nM; in experiment [4] it was 977 nM; with A2780 ovarian cells [5] it was 759 nM; with A2780 ovarian cells [6], greater than 10000 nM. The inhibition at 10 µM in experiment [3] was 93%.

Take `COc1nccc2cc(-c3ccc(C4=NC5(CC5)C(=O)N4C[C@@H]4CCN(C(=O)C5CC5)C4)cc3)ccc12` [compound 468, 6-{[(3R)-1-(Cyclopropylcarbonyl)pyrrolidin-3-yl]methyl}-5-[4-(1-methoxyisoquinolin-6-yl)phenyl]-4,6-diazaspiro[2.4]hept-4-en-7-one]: the IC50 in experiment [1] was 2040 nM; in experiment [2] it was 550 nM; in experiment [3] it was 427 nM; in experiment [4], 1580 nM; with A2780 ovarian cells [5], 661 nM; in the experiment with A2780 ovarian cells [6], greater than 10000 nM. In addition, the inhibition at 10 µM in experiment [3] was 90%.

As for `COc1cc2cc(-c3ccc(C4=NC5(CC5)C(=O)N4C[C@@H]4CCN(C(=O)C5CC5)C4)cc3)ccc2cn1` [compound 470, 6-{[(3R)-1-(Cyclopropylcarbonyl)pyrrolidin-3-yl]methyl}-5-[4-(3-methoxyisoquinolin-6-yl)phenyl]-4,6-diazaspiro[2.4]hept-4-en-7-one], the IC50 in experiment [1] was 1480 nM; in experiment [2], roughly 631 nM; in experiment [3], 182 nM; in experiment [4], 115 nM; in the experiment on A2780 ovarian cells [5], roughly 933 nM; in the experiment with A2780 ovarian cells [6], greater than 10000 nM. In addition, the inhibition at 10 µM in experiment [3] was 98%.

`N#Cc1cc2cc(-c3ccc(C4=NC5(CC5)C(=O)N4CC4CN(C(=O)C5CC5)C4)cc3)ccc2o1` [compound 475, 5-[4-(6-{[1-(Cyclopropylcarbonyl)azetidin-3-yl]methyl}-7-oxo-4,6-diazaspiro[2.4]hept-4-en-5-yl)phenyl]-1-benzofuran-2-carbonitrile]: the IC50 in experiment [1] was 3310 nM; in experiment [2], 661 nM; in experiment [3] it was 166 nM; in experiment [4], 372 nM; in the experiment with A2780 ovarian cells [5], 813 nM; in the experiment on A2780 ovarian cells [6], greater than 10000 nM. The inhibition at 10 µM in experiment [3] is 93%.

Consider `O=C(C1CC1)N1CC[C@@H](CN2C(=O)C3(CC3)N=C2c2ccc(-c3ccc4c(Cl)nccc4c3)cc2)C1` [compound 479, 5-[4-(1-Chloroisoquinolin-6-yl)phenyl]-6-{[(3R)-1-(cyclopropylcarbonyl)pyrrolidin-3-yl]methyl}-4,6-diazaspiro[2.4]hept-4-en-7-one], for which the IC50 in experiment [1] is 933 nM; in experiment [2] it was 302 nM; in experiment [3], 162 nM; in experiment [4], 447 nM; in the experiment with A2780 ovarian cells [5], 692 nM; with A2780 ovarian cells [6] it was greater than 10000 nM. For the same compound, in experiment [3], the inhibition at 10 µM was 95%.

Consider `Cn1nc(N)c2ccc(-c3ccc(C4=NC5(CC5)C(=O)N4C[C@@H]4CCN(C(=O)C5CC5)C4)cc3)cc21` [compound 483, 5-[4-(3-Amino-1-methyl-1H-indazol-6-yl)phenyl]-6-{[(3R)-1-(cyclopropylcarbonyl)pyrrolidin-3-yl]methyl}-4,6-diazaspiro[2.4]hept-4-en-7-one], for which the IC50 in experiment [1] is 380 nM; in experiment [2], roughly 91.2 nM; in experiment [3], 107 nM; in experiment [4], 174 nM; in the experiment with A2780 ovarian cells [5] it was 47.9 nM; with A2780 ovarian cells [6] it was greater than 10000 nM. Also, the inhibition at 10 µM in experiment [3] was determined as 95%.

The values are drawn from US10077261B2, “Imidazolin-5-one derivative useful as FASN inhibitors for the treatment of cancer” (Janssen Pharmaceutica NV, priority 2012, dated 2018).
